From US5633255A, “1,2-dihydro-2-oxo-3-aminoquinoxaline derivatives, their preparation and their therapeutic application” (Pierre Fabre Medicament, priority 1992, dated 1997)
Converted amounts (≈) assume the structure as drawn. Where a name gives a salt, the structure may show the parent alone.

How the values were obtained:
[1] = tested on: trachea (contraction induced by histamine); assay: antagonism of the effect of histamine (contractions of isolated guinea pig trachea); type: cell-based; conditions: Cavia porcellus, 5 min, histamine dihydrochloride 10 μg/ml, 5 min contact, 37° C.
Experimental: (§1) To this end, the compounds were studied for their antagonistic effect on the contractions induced by various products according to the following procedure. A piece of trachea from a male three-colored guinea pig weighing 400 g on average is cut into rings and mounted (2.5 cm approximately) in an insulated organ tank which is thermostatted at 37° C. and filled with oxygenated Tyrode's solution. The isometric contractions induced by the various mediators are recorded using a Gould Statham UC2 sensor (Gould Inc. Oxnard, Calif., U.S.A.) or a Palmer Bioscience UF1 sensor connected to a potentiometric recorder ([…], Selb, FRG). At the start of the experiment, the fragment of trachea is subjected to a tension of 1 g and left to stand for 1 hour. The following mediator concentrations are used (concentrations generally inducing a maximum contraction): histamine dihydrochloride, 10 μg/ml; potassium chloride, 1850 μg/ml. The concentrations of agents used result in contractions which become maximal after 5 to 15 min. depending on the mediators and remain at a steady level thereafter. A concentration of the product studied is administered for each contraction and the product is left in contact with the trachea for 5 min. The possible inhibition obtained after this time is measured (percentage of variation in the amplitude of the contraction). The trachea is next washed for 15 seconds and left to stand for 10 min. approximately (time necessary to return to the base tonus) before inducing a new contraction. The water-insoluble products are diluted in 0.178% (v.v) (final bath concentration) dimethyl sulfoxide (DMSO). […] The 50% inhibitory concentrations (IC50) are calculated using an SAS (Statistical Analysis System) program based on the model of Bliss and […] (Bliss C. I. and […]. Biological Assay Ann. Rev. Physiol. 5, 479, 1943).

Zymosan Pleurisy = assay: pleurisy model with Zymosan in rats; type: in vivo, rat (male Sprague Dawley); conditions: po; rat, 100 mg/kg p.o. one hour before Zymosan (10 mg intrapleural), exudate measured 1 hour later; read-out: Zymosan Pleurisy volume pleural exudate
Experimental: The compounds of the invention were also tested on the pleurisy model with Zymosan in rats ([…] et al. Pharmacol. Res., 21, 385, 1989) according to the following procedure: 10 mg of Zymosan in a volume of 0.15 ml of sterile 0.9% NaCl are injected into the pleural cavity of male Sprague Dawley rats mildly anesthetized with ether. The animals are sacrificed 1 hour later and the pleural exudate is withdrawn and measured. The animals are kept unfed from the evening before. The products are administered p.o. one hour before injection of the inflammation-inducing agent, at a dose of 100 mg/kg.

[2] = tested on: trachea (contraction induced by potassium chloride); assay: antagonism of the effect of potassium chloride (contractions of isolated guinea pig trachea); type: cell-based; conditions: Cavia porcellus, 5 min, potassium chloride 1850 μg/ml, 5 min contact, 37° C.
Experimental: as §1

| Structure (SMILES) | IC50 [1] [mg/L] | IC50 [2] [mg/L] | change in vivo at 100 mg/kg (Zymosan Pleurisy) [%] |
| --- | --- | --- | --- |
| CCCn1c(=O)c(N)nc2ccccc21.Cl [Compound 5, 1-n-propyl-1,2-dihydro-2-oxo-3-aminoquinoxaline hydrochloride] | 4.6 | 19.3 | -21 |
| CCCn1c(=O)c(N(C)C)nc2ccccc21.Cl [Compound 7, 1-n-propyl-1,2-dihydro-2-oxo-3-dimethylaminoquinoxaline hydrochloride] | 10.7 | 28 | -44 |
| CCCCn1c(=O)c(N)nc2ccccc21 [Compound 8] | 1.7 (≈ 7.82 µM) | 9.6 (≈ 44.2 µM) | 4 |
| CCCCn1c(=O)c(N(C)C)nc2ccccc21 [Compound 10] | 5.7 (≈ 23.2 µM) | 45 (≈ 183 µM) | -47 |
| C=CCn1c(=O)c(N)nc2ccccc21 [Compound 11] | 5.9 (≈ 29.3 µM) | 21 (≈ 104 µM) | -33 |
| CC(C)(O)CCn1c(=O)c(N)nc2ccccc21 [Compound 17, 1-(3-methyl-3-hydroxy)butyl-1,2-dihydro-2-oxo-3-aminoquinoxaline hydrochloride] | 23 | 45 | – |
| Cn1c(=O)c2[nH]cnc2n(C)c1=O [Theophylline, reference compound] | 30 (≈ 167 µM) | 30 (≈ 167 µM) | – |

More lines, main results first:

| IC50 [1] [mg/L] | IC50 [2] [mg/L] | Structure (SMILES) | change in vivo at 100 mg/kg (Zymosan Pleurisy) [%] |
| --- | --- | --- | --- |
| 6.4 | 4.7 | CCCn1c(=O)c(NC)nc2ccccc21.Cl [Compound 6, 1-n-propyl-1,2-dihydro-2-oxo-3-methylaminoquinoxaline hydrochloride] | -27 |
| 0.55 (≈ 2.38 µM) | 11.1 (≈ 48 µM) | CCCCn1c(=O)c(NC)nc2ccccc21 [Compound 9] | -29 |
| 1.1 (≈ 5.11 µM) | 9.1 (≈ 42.3 µM) | C=CCn1c(=O)c(NC)nc2ccccc21 [Compound 12] | -31 |
| 8.6 (≈ 37.5 µM) | 19.3 (≈ 84.2 µM) | C=CCn1c(=O)c(N(C)C)nc2ccccc21 [Compound 13] | -43 |
| 2.6 | 7.4 | CC(C)=CCn1c(=O)c(N)nc2ccccc21 [Compound 14, hydrochloride] | -14 |
| 0.65 (≈ 2.67 µM) | – | CNc1nc2ccccc2n(CC=C(C)C)c1=O [Compound 15] | -5 |
| 13.5 (≈ 52.5 µM) | – | CC(C)=CCn1c(=O)c(N(C)C)nc2ccccc21 [Compound 16] | – |
